Reference: patent US20240391870A1 (Arcturus Therapeutics, Inc., priority 2023, published 2024)

Legend:
hEPO = hEPO mRNA expression evaluation (hEPO-LNPs); assay type: in vivo, Balb/c mice; settings: Table 3; 0.3 mg/kg
[1] = Lipid nanoparticle size, PDI and encapsulation; assay type: physicochemical; settings: Table 3; for Size (nm): lipid nanoparticle; for EE %: lipid nanoparticle encapsulation
Description: In the context of nucleic acids, full encapsulation may be determined by performing a membrane-impermeable fluorescent dye exclusion assay, which uses a dye that has enhanced fluorescence when associated with nucleic acid. Encapsulation is determined by adding the dye to a lipid formulation, measuring the resulting fluorescence, and comparing it to the fluorescence observed upon addition of a small amount of nonionic detergent. Detergent-mediated disruption of the lipid layer releases the encapsulated nucleic acid, allowing it to interact with the membrane-impermeable dye. Nucleic acid encapsulation may be calculated as E=(I0−I)/I0, where I and I0 refer to the fluorescence intensities before and after the addition of detergent.

[2] = Lipid nanoparticle size, PDI and encapsulation; assay type: physicochemical; settings: Table 3
[3] = Measured pKa in the indicated formulation
Description: Measured pKa values were determined based on the pH measured in the indicated formulation (i.e., EPO or FVII formulation).

[4] = In vivo biodegradability assay (lipid in liver); settings: Table 3; liver tissue, 0.3 mg/kg dose
Description: In vivo biodegradability assay was performed to assess the biodegradability of lipids in the LNP. Briefly, mice were injected with either 0.1 or 0.03 mg/Kg dose and after 24 or 48 hours mice livers were collected. To measure the concentration of lipids in the mouse liver, liver samples were homogenized in appropriate buffer in 1-10 dilution and mixed with the same amount of stabilized plasma. The samples were then mixed with organic solvents spiked with internal standard to precipitate proteins. After centrifugation, supernatant was diluted further with organic solvent before sample analysis by LC-MS. In LC-MS analysis, positive electrospray ionization was used, and multiple reaction monitoring (MRM) parameters were set up to specifically target the lipid analyte and internal standard. Calibration standards were prepared in stabilized plasma and mixed with same amount of homogenization buffer before protein precipitation. Quality control samples with known amounts of lipid was prepared in blank liver homogenate to monitor the precision and accuracy of the assay.

factor VII = experiment: Factor VII knock down evaluation (LNP with FVII siRNA); assay type: in vivo, Balb/C mice; settings: Table 3; 0.03 mg/kg
In short: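 Female Balb/C mice, 7–8 weeks old, received FVII siRNA lipid nanoparticles intravenously at 0.03 or 0.01 mg/kg. Plasma was collected 48 h later and FVII protein measured by chromogenic assay at 405 nm against a control plasma calibration curve. Levels are relative to saline-treated controls.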

| SMILES | Size (nm) [1] | EE % [1] | PDI [2] | pKa [3] | Invivo lipid degradability ng/g of Liver tissue @ 0.3 mg/kg dose [4] | EPO expression in ng/mL @ 0.3 mg/kg (hEPO) | FVII KD % @ 0.03 mg/kg (factor VII) |
| --- | --- | --- | --- | --- | --- | --- | --- |
| CCCCC(C)(C)CC(=O)OCC(C)(COC(=O)CCC(CCC(=O)OCC(C)(COC(=O)CC(C)(C)CCCC)COC(=O)CC(C)(C)CCCC)OC(=O)CCCN(C)C)COC(=O)CC(C)(C)CCCC [Lipid 60, bis(3-((3,3-dimethylheptanol)oxy)-2-(((3,3-dimethylheptanol)oxy)methyl)-2-methylpropyl) 4-((4-(dimethylamino)butanoyl)oxy)heptanedioate] | 65.95 nm | 93.9% | 0.087 | 6.28 | 53300 ng/g | 1631.03 ng/mL |  |
| CN(C)CCCC(=O)OC(CCCC(=O)OCC(COC(=O)CCC1CCCCC1)COC(=O)CCC1CCCCC1)CCCC(=O)OCC(COC(=O)CCC1CCCCC1)COC(=O)CCC1CCCCC1 [Lipid 61, bis(3-((3-cyclohexylpropanoyl)oxy)-2-(((3-cyclohexylpropanoyl)oxy)methyl)propyl)5-((4-(dimethylamino)butanoyl)oxy)nonanedioate] | 70.54 nm | 95.3% | 0.064 | 6.84 | BLOQ | 4238.52 ng/mL |  |
| CC1CCC(CCC(=O)OCC(C)(COC(=O)CCC2CCC(C)CC2)COC(=O)CCN(CCC(=O)OCC(C)(COC(=O)CCC2CCC(C)CC2)COC(=O)CCC2CCC(C)CC2)C(=O)N(C)CCCN(C)C)CC1 (stereo not drawn) [Lipid 48, (((3,3′-((((3-dimethylamino)propyl)methylcarbamoyl)azanediyl)bis(propanoyl))bis(oxy))bis(methylene))bis(2-methylpropane-2,1,3-triyl)tetrakis(3-(4-methylcyclohexyl)propanoate)] | 103.2 nm | 96.2% | 0.065 | 7.18 |  |  |  |
| CC1CCC(CCC(=O)OCC(C)(COC(=O)CCC2CCC(C)CC2)COC(=O)CCN(CCC(=O)OCC(C)(COC(=O)CCC2CCC(C)CC2)COC(=O)CCC2CCC(C)CC2)C(=O)CCCCN(C)C)CC1 (stereo not drawn) [Lipid 49, (((3,3′-((5-(dimethylamino)pentanoyl)azanediyl)bis (propanoyl))bis(oxy))bis(methylene))bis(2-methylpropane-2,1,3-triyl)tetrakis(3-(4-methylcyclohexyl)propanoate)] | 97.23 nm | 98.9% | 0.028 | 7.5 |  |  | 3.57% |

Now from value to molecule, other results behind:

| Size (nm) [1] | EE % [1] | PDI [2] | pKa [3] | Invivo lipid degradability ng/g of Liver tissue @ 0.3 mg/kg dose [4] | SMILES | EPO expression in ng/mL @ 0.3 mg/kg (hEPO) | FVII KD % @ 0.03 mg/kg (factor VII) |
| --- | --- | --- | --- | --- | --- | --- | --- |
| 78.98 nm | 94.3% | 0.065 | 6.52 | BLOQ | CN(C)CCCC(=O)OC(CCCC(=O)OC(COC(=O)CCC1CCCCC1)COC(=O)CCC1CCCCC1)CCCC(=O)OC(COC(=O)CCC1CCCCC1)COC(=O)CCC1CCCCC1 [Lipid 57, bis(1,3-bis((3-cyclohexylpropanoyl)oxy)propan-2-yl) 5-((4-(dimethylamino)butanoyl)oxy)nonanedioate] | 21737.69 ng/mL |  |
| 70.09 nm | 93.4% | 0.081 | 6.49 | BLOQ | CN(C)CCCC(=O)OC(CCCC(=O)OC(COC(=O)CCCC1CCCCC1)COC(=O)CCCC1CCCCC1)CCCC(=O)OC(COC(=O)CCCC1CCCCC1)COC(=O)CCCC1CCCCC1 | 19337.84 ng/mL |  |
| 100.4 nm | 88.2% | 0.086 |  |  | CN(C)CCCSC(=O)N(CCCC(=O)OC(COC(=O)CCc1ccc(-c2ccccc2)cc1)COC(=O)CCc1ccc(-c2ccccc2)cc1)CCCC(=O)OC(COC(=O)CCc1ccc(-c2ccccc2)cc1)COC(=O)CCc1ccc(-c2ccccc2)cc1 [Lipid 42, ((4,4′-((((3-(dimethylamino)propyl)thio)carbonyl)azanediyl)bis(butanoyl))bis(oxy))bis(propane-2,1,3-triyl)tetrakis(3-([1,1′-biphenyl]-4-yl)propanoate)] |  |  |
